This is an account of results in ChEMBL document CHEMBL3046129, “Synthesis and pharmacological evaluation of N-(6-chlorobenzo[d]thiazol-2-yl)hydrazine carboxamide derivatives of benzothiazole” (Med Chem Res, 2013).

Series [1] concerns Rattus norvegicus. In words: Potency index, Rattus norvegicus (rat)io of ibuprofen anti-inflammatory activity to compound anti-inflammatory activity in Wistar Rattus norvegicus (rat) at 70 mg/kg, po administered 1 hr prior to carrageenan-challenge measured after 4 hr by plethysmometer analysis. Format: functional.
Series [2] deals with Rattus norvegicus. In words: Anti-inflammatory activity in Wistar Rattus norvegicus (rat) assessed as inhibition of carrageenan-induced paw edema at 70 mg/kg, po administered 1 hr prior to carrageenan-challenge measured after 3 hr by plethysmometer analysis. The class given is functional. On the technique in general: The carrageenan paw model is a standard test of acute inflammation.

Series [3] relates to Rattus norvegicus. Nature of the series: Anti-inflammatory activity in Wistar Rattus norvegicus (rat) assessed as inhibition of carrageenan-induced paw edema at 70 mg/kg, po administered 1 hr prior to carrageenan-challenge measured after 4 hr by plethysmometer analysis. Format: functional.
Series [4] deals with Mus musculus. Nature of the series: Analgesic activity in Swiss albino Mus musculus (mouse) assessed as time required for tail withdrawal at 70 mg/kg, po measured after 4 hr by tail immersion method. The class given is functional.
In series [5] the test system is Rattus norvegicus. In words: Hepatotoxicity in Wistar albino Rattus norvegicus (rat) assessed as serum total albumin level at 210 mg/kg, po qd for 15 days (reference value: 1.63 +/-0.02 g/dl). The class given is toxicity, organism-based. Further details: dose 210 mg/kg, route oral. The conditions noted are these: in vivo, 360 h.
In series [6] the test system is Mus musculus. Nature of the series: Potency index, ratio of ibuprofen analgesic activity to compound analgesic in Swiss albino Mus musculus (mouse) at 70 mg/kg, po measured after 4 hr by tail immersion method. The class given is functional.
Series [7] relates to Rattus norvegicus. In words: Gastrointestinal toxicity in Wistar Rattus norvegicus (rat) assessed as ulcerogenicity index at 210 mg/kg, po (reference value: 0 No unit). Format: organism-based. Further details: dose 210 mg/kg, route oral. The settings on record: in vivo.
Series [8] has as its system Rattus norvegicus. In words: Hepatotoxicity in Wistar albino Rattus norvegicus (rat) assessed as serum glutamate oxaloacetate transaminase activity at 210 mg/kg, po qd for 15 days (reference value: 143.71 +/-1.10 units/ml). Format: toxicity, organism-based. Further details: dose 210 mg/kg, route oral. The settings on record: in vivo, 360 h.
Series [9] has as its system Rattus norvegicus. In words: Hepatotoxicity in Wistar albino Rattus norvegicus (rat) assessed as hepatocyte necrosis and degeneRattus norvegicus (rat)ion at 210 mg/kg, po qd for 15 days measured after 24 hr of last dosage of drug by hematoxylin-eosin staining based light microscopy. The class given is toxicity, organism-based. Further details: dose 210 mg/kg, route oral. The conditions noted are these: hepatocytes.

In series [10] the test system is Mus musculus. Nature of the series: Analgesic activity in Swiss albino Mus musculus (mouse) assessed as inhibition of pain at 70 mg/kg, po measured after 4 hr by tail immersion method. The class given is functional.
Series [11] relates to Rattus norvegicus. Nature of the series: Hepatotoxicity in Wistar albino Rattus norvegicus (rat) assessed as serum glutamate pyruvate transaminase activity at 210 mg/kg, po qd for 15 days (reference value: 32.46 +/-0.76 units/ml). Format: toxicity, organism-based. On the set-up: dose 210 mg/kg, route oral. The conditions noted are these: in vivo, 360 h.
Series [12] concerns Rattus norvegicus. Nature of the series: Effect on lipid peroxidation in Wistar Rattus norvegicus (rat) gastric mucosa assessed as malondialdehyde content at 210 mg/kg, po measured per 100 mg of tissue by UV spectrophotometric analysis (reference value: 3.26 +/-0.01 nmol). Format: ADME, organism-based. Further details: dose 210 mg/kg, route oral. The conditions noted are these: in vivo.

The subject of series [13] is Rattus norvegicus. Nature of the series: Hepatotoxicity in Wistar albino Rattus norvegicus (rat) assessed as serum total protein level at 210 mg/kg, po qd for 15 days (reference value: 1.72 +/-0.02 g/dl). The class given is toxicity, organism-based. Further details: dose 210 mg/kg, route oral. The settings on record: in vivo, 360 h.
Series [14] has as its system Rattus norvegicus. In words: Hepatotoxicity in Wistar albino Rattus norvegicus (rat) assessed as serum alkaline phosphatase activity at 210 mg/kg, po qd for 15 days. The conditions noted are these: in vivo, 360 h. Format: toxicity, organism-based. Further details: dose 210 mg/kg, route oral.
Series [15] relates to Rattus norvegicus. In words: Hepatotoxicity in Wistar albino Rattus norvegicus (rat) assessed as hepatocyte with clearing of cytoplasm and compression of sinusoidal spaces at 210 mg/kg, po qd for 15 days measured after 24 hr of last dosage of drug by hematoxylin-eosin staining based light microscopy. The class given is toxicity, organism-based, Sinusoidal space. On the set-up: dose 210 mg/kg, route oral. The settings on record: hepatocytes.

As for `Clc1ccc2nc(Nc3nnc(-c4ccccc4Cl)o3)sc2c1`, the Ratio in series [1] is 0.64. The inhibition in vivo at 70 mg/kg in series [2] worked out at 53%; in series [3], 53.2%.
Turning to `CC(=O)Oc1ccccc1-c1nn2c(Nc3nc4ccc(Cl)cc4s3)nnc2s1`, the Ratio in [1] is recorded as 0.24. The figures for the inhibition in vivo at 70 mg/kg in [2] and in [3] were 10% and 20.6%, respectively.
As to `Clc1ccc(-c2nnc(Nc3nc4ccc(Cl)cc4s3)o2)c(Cl)c1`, in series [4], the Time is reported as 2.22 s. Besides, the Ratio in series [1] stood at 1.05; in series [6], 0.96. Besides, the Activity in series [5] is 1.7 g/dL; in series [8], 138.42 U/ml; in series [9] it was “Non-toxic”; in series [11], 30.74 U/ml; in [12], 3.29 nmol; in series [13], 1.75 g/dL. In addition, the Activity result is on record as “Non-toxic” in series [14] and “Toxic” in series [15]. The inhibition in vivo at 70 mg/kg in series [2] is 80%; in series [10], 79%; in series [3], 87.1%. Also, the UI in series [7] came out at 0.917.
For `CC(C)Cc1ccc(C(C)C(=O)O)cc1` (stereo not given) [IBUPROFEN], the Time in series [4] was determined as 2.6 s. Besides, the Activity in series [5] was 1.71 g/dL; in series [8], 140.14 U/ml; in [11], 34.26 U/ml; in [12], 7.51 nmol; in series [13] it was 1.74 g/dL; in series [14] it was “Toxic”. The results for the inhibition in vivo at 70 mg/kg in series [2], in [10] and in [3] were 78.2%, 73.5% and 82.7%, respectively. Moreover, the UI in series [7] was found to be 2.315.
In the case of `Cc1ccccc1-c1nnc(Nc2nc3ccc(Cl)cc3s2)o1`, the Ratio in series [1] came out at 0.45. In addition, the inhibition in vivo at 70 mg/kg in series [2] came to 23.9%; in series [3], 37.7%.
For `Sc1nnc(Nc2nc3ccc(Cl)cc3s2)o1`, the Time in [4] stood at 2.24 s. Further, the Ratio in [1] was determined as 0.84; in [6], 0.88. Further, the inhibition in vivo at 70 mg/kg turned out to be 61.7% in series [2], 72.3% in [10] and 69.8% in series [3]. In addition, in series [7], the UI is listed as 2.166. Further, the Activity in series [12] amounted to 9.04 nmol.
As to `Clc1ccc(-c2nn3c(Nc4nc5ccc(Cl)cc5s4)nnc3s2)c(Cl)c1`, the Time in series [4] is given as 2.21 s. In addition, the Ratio in [1] is recorded as 1.08; in series [6] it was 0.92. For the same molecule, the inhibition in vivo at 70 mg/kg in series [2] stood at 80%; in series [10], 75.4%; in series [3] it was 89.6%. In addition, the UI in series [7] was 0.925. In [12], the Activity was found to be 5.74 nmol.
Consider `Clc1ccc2nc(Nc3nnc(-c4ccccc4)o3)sc2c1`, for which, in series [4], the Time stood at 1.45 s. The Ratio in series [1] is 1.06; in series [6], 0.74. In addition, the figures for the inhibition in vivo at 70 mg/kg in [2], in series [10] and in series [3] were 78.8%, 61.1% and 88.3%, respectively. Also, the UI in [7] was 1.667. Besides, the Activity in series [12] was 4.47 nmol.
For `Clc1ccc2nc(Nc3nnc(Oc4ccccc4)o3)sc2c1`, the Time in series [4] worked out at 1.9 s. Moreover, the Ratio was determined as 1.07 in series [1] and 0.63 in [6]. In addition, the inhibition in vivo at 70 mg/kg was found to be 74.2% in series [2], 52% in [10] and 88.8% in series [3]. Besides, the UI in series [7] is given as 1.083. For the same molecule, the Activity in series [12] stood at 9.1 nmol.
On to `Clc1ccc2nc(Nc3nnc4sc(Oc5ccccc5)nn34)sc2c1`, for which, in series [4], the Time was determined as 2.17 s. In addition, the Ratio in [1] was determined as 1.08; in series [6], 0.91. In addition, the Activity is 1.74 g/dL in series [5]; 131.18 U/ml in [8]; “Non-toxic” in series [9]; 28.33 U/ml in series [11]; 3.04 nmol in [12]; 1.79 g/dL in series [13]. In addition, the values for the Activity entry in series [14] and in series [15] were “Non-toxic” and “Toxic”, respectively. For the same molecule, the inhibition in vivo at 70 mg/kg in series [2] stood at 78.3%; in [10], 75%; in series [3], 89.7%. The UI in series [7] is given as 0.666.
In the case of `O=[N+]([O-])c1ccc(-c2nn3c(Nc4nc5ccc(Cl)cc5s4)nnc3s2)cc1`, the Ratio in series [1] is listed as 0.8. Moreover, the inhibition in vivo at 70 mg/kg in [2] came to 53.3%; in [3] it was 66.7%.
Consider `CC(=O)Oc1ccccc1-c1nnc(Nc2nc3ccc(Cl)cc3s2)o1`, for which, in [1], the Ratio is reported as 0.61. The figures for the inhibition in vivo at 70 mg/kg in series [2] and in series [3] were 31% and 50.8%, respectively.
Take `Cc1ccccc1-c1nn2c(Nc3nc4ccc(Cl)cc4s3)nnc2s1`: the Time in series [4] came to 2.83 s. Further, the results for the Ratio in [1] and in series [6] were 1.07 and 0.93, respectively. Besides, the inhibition in vivo at 70 mg/kg is 77.5% in [2], 76.9% in series [10] and 88.8% in series [3]. Further, in series [7], the UI amounted to 1.583. Besides, the Activity in series [12] is reported as 7.44 nmol.
For the molecule `CC.O=[N+]([O-])c1ccc(-c2nnc(Nc3nc4ccc(Cl)cc4s3)o2)cc1`, the Ratio in series [1] is 0.39. In addition, the results for the inhibition in vivo at 70 mg/kg in series [2] and in series [3] were 19.2% and 32.5%, respectively.
Take `Clc1ccc2nc(Nc3nnc4sc(-c5ccccc5Cl)nn34)sc2c1`: the Ratio in series [1] was 0.61. The inhibition in vivo at 70 mg/kg in [2] was 41.7%; in series [3], 50.8%.
For `Clc1ccc2nc(Nc3nnc4sc(-c5ccccc5)nn34)sc2c1` the same measures were 0.7, 48.3% and 57.9%.

As a reminder, the inhibition in vivo is how much of the control response was suppressed.
